A word on the IC50: it is the concentration at which inhibition is half-maximal. Low readings indicate greater potency, high ones weaker potency.

This note sets out measurements from patent publication US20250145606A1 (Arcus Biosciences, Inc., priority 2023, published 2025).

Structures are written as SMILES. Some results are limits rather than exact numbers.

Details in all cases: biochemical, HTRF KinEASE-TK
For test [1], the target named is c-Kit (Homo sapiens (Human), UniProt P10721). The test can be described thus: Inhibition of c-Kit kinase activity (HTRF KinEASE-TK). The class given is biochemical. As to the method: (§1) Inhibition of c-Kit, PDGFRα, PDGFRβ, CSFIR and FLT3 Kinase Activity
(§2) Compounds were evaluated to determine the potency with which they inhibit the kinase activity of the following panel of tyrosine kinases: c-Kit (SignalChem, Product #: K06-11BG), PDGFRα (SignalChem, Product #: P12-18G), PDGFRβ (SignalChem, Product #: P13-11G), CSFIR (SignalChem, Product #: C74-11G) and FLT3 (Invitrogen, Product #: PR4666C). Activity was determined as a function of phosphorylated biotinylated TK peptide generated by the transfer of phosphate from ATP as measured by the use of the HTRF KinEASE-TK assay kit (Cisbio, Product #: 62TKOPEJ). Levels of phosphorylated biotinylated TK peptide (Part 61TKOBLC of KinEASE assay kit) are quantified by its capture by phosphor-TK-Antibody-Cryptate (Part of KinEASE assay kit) and XL665-labeled Streptavidin (Part 610SAXLG of KinEASE assay kit) followed by measurement of Time-Resolved Fluorescence Resonance Energy Transfer (TR-FRET) signal. On the day of the assay, compounds were solubilized in DMSO and dispensed into a 384-well white Opti-plate (PerkinElmer, catalog #6007290) to generate a 22 point 1:2 titration. Enzyme solution was prepared for each of the tyrosine kinases in 50 mM HEPES, pH 7.4, 5 mM MgCl2 for c-Kit or 10 mM MgCl2 for FLT3, CSFIR, PDGFRa and PDGFRβ, 2 mM MnCl2, 0.01% Brij-35 and 0.01% BSA. Working enzyme concentrations were prepared for c-Kit at 2 nM (2×), PDGFRa and PDGFRß at 10 nM (2×), CSFIR at 2 nM (2×) and FLT3 at 0.4 nM (2×). Five microliters of enzyme dilution of each tyrosine kinase were added to their respective 384-well white Opti-plate pre-dispensed with compound and allowed to incubate for 1 h at rt. Utilizing the same enzyme buffer recipe, 2x substrate mixes were prepared for each enzyme as follows: For c-Kit, 1.6 μM (2×) TK substrate and 16 μM (2×) ATP (Promega, catalog #V915). For PDGFRα, 3.2 μM TK substrate and 1 μM ATP. For PDGFRβ, 3.2 μM TK substrate and 40 μM ATP. For CSFIR, […] TK substrate and 20 μM ATP. For FLT3, 3.2 μM TK substrate and 100 μM ATP. Reactions were initiated by addition of 5 μL of the respective 2x substrate mix to each well of the plates containing the respective tyrosine kinase enzymes and were allowed to proceed for 120 minutes at rt, except for FLT3, the reaction time is 45 min. Following the reaction, 10 μL of detection mix consisting of 0.2 μM (2×) of Streptavidin-XL665 and 2 μM (2×) of TK-Antibody-Cryptate prepared in detection buffer (Part 62SDBRDF of KinEASE assay kit) was added and then allowed to incubate for 60 min. The TR-FRET signal was quantified by measuring the ratio of emission at 665 nm to 620 nm after excitation at 320 nm by reading on a PerkinElmer Envision multimode reader. Compound potencies (IC50 values) were determined using a standard 4-parameter non-linear regression fit.
A general note: TR-FRET usually uses a lanthanide donor and a delayed reading to cut background.

The target of test [2] is PDGFRα (Homo sapiens (Human), UniProt P16234). The test can be described thus: Inhibition of PDGFRα kinase activity (HTRF KinEASE-TK). As to the method:
as §1, §2

The target of test [3] is PDGFRβ (Homo sapiens (Human), UniProt P09619). The test can be described thus: Inhibition of PDGFRβ kinase activity (HTRF KinEASE-TK). The procedure:
as §1, §2

Test [4] has as its target CSF1R (Homo sapiens (Human), UniProt P07333). The test can be described thus: Inhibition of CSF1R kinase activity (HTRF KinEASE-TK). As to the method: as §1, §2

Sequence of PDGFRβ (P09619 33-1106): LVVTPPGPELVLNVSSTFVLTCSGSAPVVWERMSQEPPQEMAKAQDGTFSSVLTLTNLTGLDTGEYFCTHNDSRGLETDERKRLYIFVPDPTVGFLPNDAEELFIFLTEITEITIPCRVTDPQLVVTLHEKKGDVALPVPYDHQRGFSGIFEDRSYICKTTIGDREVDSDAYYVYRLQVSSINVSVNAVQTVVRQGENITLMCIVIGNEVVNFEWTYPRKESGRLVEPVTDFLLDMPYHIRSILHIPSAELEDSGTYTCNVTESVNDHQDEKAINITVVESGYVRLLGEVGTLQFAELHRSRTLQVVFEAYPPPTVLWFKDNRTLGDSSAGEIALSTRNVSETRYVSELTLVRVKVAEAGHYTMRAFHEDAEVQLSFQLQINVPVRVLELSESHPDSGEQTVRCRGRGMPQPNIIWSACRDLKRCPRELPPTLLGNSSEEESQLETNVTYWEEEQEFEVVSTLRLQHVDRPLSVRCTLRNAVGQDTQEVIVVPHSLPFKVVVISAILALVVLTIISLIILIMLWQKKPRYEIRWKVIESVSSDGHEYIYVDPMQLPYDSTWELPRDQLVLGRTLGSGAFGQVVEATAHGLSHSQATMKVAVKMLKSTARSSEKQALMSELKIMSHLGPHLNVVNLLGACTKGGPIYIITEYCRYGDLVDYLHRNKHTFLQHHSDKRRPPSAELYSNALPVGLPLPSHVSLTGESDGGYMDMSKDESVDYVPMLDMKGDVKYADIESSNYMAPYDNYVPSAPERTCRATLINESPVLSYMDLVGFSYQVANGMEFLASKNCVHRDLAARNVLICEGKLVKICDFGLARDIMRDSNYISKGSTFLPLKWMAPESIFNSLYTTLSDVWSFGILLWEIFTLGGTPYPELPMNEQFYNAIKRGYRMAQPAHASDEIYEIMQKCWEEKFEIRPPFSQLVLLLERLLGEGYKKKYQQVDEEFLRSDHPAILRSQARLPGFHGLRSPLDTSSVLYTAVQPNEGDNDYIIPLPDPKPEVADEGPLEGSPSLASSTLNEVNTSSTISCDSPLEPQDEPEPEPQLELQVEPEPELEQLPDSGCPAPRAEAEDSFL
Sequence of CSF1R (P07333 20-972): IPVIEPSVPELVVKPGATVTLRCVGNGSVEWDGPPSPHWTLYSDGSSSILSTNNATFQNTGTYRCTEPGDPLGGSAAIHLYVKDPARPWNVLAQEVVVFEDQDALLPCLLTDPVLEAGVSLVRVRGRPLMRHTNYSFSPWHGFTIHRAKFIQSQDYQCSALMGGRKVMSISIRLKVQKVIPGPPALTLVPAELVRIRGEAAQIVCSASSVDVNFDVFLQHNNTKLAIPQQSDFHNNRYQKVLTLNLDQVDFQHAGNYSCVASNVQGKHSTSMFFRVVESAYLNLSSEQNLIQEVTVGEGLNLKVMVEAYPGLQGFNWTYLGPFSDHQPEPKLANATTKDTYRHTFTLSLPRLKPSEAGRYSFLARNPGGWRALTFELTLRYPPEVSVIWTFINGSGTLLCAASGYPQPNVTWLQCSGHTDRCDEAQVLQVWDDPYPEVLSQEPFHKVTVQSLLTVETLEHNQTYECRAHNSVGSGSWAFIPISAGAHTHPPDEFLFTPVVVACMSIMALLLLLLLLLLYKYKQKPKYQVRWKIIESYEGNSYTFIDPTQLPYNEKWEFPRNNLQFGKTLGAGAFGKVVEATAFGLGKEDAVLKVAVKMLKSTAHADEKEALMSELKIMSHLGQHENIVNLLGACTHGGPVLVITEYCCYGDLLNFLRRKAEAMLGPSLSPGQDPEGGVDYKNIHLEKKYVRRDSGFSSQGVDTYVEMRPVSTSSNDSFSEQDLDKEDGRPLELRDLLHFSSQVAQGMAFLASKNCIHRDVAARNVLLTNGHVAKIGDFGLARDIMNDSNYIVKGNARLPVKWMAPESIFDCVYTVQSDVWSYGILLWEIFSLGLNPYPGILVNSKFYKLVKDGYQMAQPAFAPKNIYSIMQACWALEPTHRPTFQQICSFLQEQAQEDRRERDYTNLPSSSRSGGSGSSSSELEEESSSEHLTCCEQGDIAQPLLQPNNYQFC
Sequence of PDGFRα (P16234 24-1089): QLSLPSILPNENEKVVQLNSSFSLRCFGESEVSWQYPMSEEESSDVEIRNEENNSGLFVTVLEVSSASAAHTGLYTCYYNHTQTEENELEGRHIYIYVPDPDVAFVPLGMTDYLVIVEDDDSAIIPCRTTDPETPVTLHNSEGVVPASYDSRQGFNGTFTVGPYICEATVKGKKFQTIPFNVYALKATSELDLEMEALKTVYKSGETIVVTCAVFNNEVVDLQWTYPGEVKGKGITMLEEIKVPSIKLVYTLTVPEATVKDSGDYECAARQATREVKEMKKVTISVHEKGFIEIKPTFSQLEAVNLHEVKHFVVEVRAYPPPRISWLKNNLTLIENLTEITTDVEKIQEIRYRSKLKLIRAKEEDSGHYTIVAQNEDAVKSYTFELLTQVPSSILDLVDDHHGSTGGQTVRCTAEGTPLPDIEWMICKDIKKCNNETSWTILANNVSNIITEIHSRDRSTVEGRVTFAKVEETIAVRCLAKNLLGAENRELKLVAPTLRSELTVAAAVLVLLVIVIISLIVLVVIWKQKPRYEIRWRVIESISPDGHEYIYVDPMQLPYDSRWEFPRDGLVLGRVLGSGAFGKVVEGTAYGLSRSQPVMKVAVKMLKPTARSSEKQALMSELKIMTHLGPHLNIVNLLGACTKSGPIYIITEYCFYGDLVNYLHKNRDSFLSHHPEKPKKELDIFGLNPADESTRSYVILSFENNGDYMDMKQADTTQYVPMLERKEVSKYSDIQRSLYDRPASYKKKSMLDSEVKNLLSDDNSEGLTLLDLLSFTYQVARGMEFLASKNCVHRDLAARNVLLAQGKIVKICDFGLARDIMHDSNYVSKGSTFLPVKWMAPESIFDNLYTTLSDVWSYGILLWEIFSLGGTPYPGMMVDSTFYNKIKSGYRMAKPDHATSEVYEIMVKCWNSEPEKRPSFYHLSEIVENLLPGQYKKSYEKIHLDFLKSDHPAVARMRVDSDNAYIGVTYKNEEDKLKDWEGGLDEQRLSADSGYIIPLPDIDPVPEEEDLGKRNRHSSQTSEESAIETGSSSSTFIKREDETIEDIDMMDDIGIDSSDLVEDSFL
Sequence of c-Kit (P10721 26-976): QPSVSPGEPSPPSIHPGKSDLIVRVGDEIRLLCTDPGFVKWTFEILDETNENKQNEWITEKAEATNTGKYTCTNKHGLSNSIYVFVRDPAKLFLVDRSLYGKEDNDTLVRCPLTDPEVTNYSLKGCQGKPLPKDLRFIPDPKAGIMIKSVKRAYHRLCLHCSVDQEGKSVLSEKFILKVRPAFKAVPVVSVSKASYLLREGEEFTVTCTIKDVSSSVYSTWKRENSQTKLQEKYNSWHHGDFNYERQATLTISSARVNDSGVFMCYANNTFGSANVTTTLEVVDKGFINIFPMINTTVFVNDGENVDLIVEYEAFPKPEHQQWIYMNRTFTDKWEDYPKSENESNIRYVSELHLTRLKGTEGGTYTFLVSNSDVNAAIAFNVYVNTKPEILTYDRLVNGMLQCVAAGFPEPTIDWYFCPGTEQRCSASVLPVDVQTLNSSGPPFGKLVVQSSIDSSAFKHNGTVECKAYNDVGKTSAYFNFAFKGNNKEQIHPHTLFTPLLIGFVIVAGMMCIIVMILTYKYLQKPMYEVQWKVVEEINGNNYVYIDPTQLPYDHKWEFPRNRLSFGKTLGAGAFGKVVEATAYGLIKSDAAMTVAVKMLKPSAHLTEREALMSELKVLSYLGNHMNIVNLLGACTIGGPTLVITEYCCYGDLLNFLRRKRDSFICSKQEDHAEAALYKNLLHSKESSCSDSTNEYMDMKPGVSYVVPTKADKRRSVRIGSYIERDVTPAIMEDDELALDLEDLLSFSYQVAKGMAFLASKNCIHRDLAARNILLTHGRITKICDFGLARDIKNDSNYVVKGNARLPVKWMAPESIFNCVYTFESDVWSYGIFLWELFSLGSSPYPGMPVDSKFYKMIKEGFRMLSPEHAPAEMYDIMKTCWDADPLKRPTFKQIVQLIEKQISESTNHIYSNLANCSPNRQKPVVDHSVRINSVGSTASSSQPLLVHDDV

In the case of `Cc1cc(F)c(C(=O)N[C@H]2C[C@@H](C#N)C2)cc1NC(=O)c1cnc(N)s1` [Example 126, 2-Amino-N-[5-[(3-cyanocyclobutyl)carbamoyl]-4-fluoro-2-methylphenyl]-1,3-thiazole-5-carboxamide], the IC50 in test [1] is less than 100 nM; in test [2], 100 to 1000 nM; in test [3] it was more than 1000 nM; in test [4], more than 1000 nM.

Regarding `Cc1cc(F)c(C(=O)N[C@H]2C[C@@H](C(N)=O)C2)cc1NC(=O)c1cnc(N)s1` [Example 127, 2-Amino-N-[5-[(3-carbamoylcyclobutyl)carbamoyl]-4-fluoro-2-methylphenyl]-1,3-thiazole-5-carboxamide], the 50% inhibitory concentration (IC50) in test [1] is 100 to 1000 nM; in test [2], more than 1000 nM; in test [3], more than 1000 nM; in test [4] it was more than 1000 nM.

In the case of `Cc1cc(F)c(C(=O)Nc2ccc(OC3CC3)cc2F)cc1NC(=O)c1cnc(N)s1` [Example 128], the IC50 is less than 100 nM in test [1], 100 to 1000 nM in test [2], less than 100 nM in test [3] and 100 to 1000 nM in test [4].

In the case of `Cc1cc(F)c(C(=O)Nc2ccn(C(C)(C)C)n2)cc1NC(=O)c1cnc(N)s1` [Example 141, 2-Amino-N-[5-[(1-tert-butylpyrazol-3-yl)carbamoyl]-4-fluoro-2-methylphenyl]-1,3-thiazole-5-carboxamide], the half-inhibitory concentration (IC50) in test [1] is less than 100 nM; in test [2], less than 100 nM; in test [3], less than 100 nM; in test [4], 100 to 1000 nM.

Take `Cc1cc(F)c(C(=O)Nc2ccn(CCO)n2)cc1NC(=O)c1cnc(N)s1` [Example 144, 2-Amino-N-[4-fluoro-5-[[1-(2-hydroxyethyl)pyrazol-3-yl]carbamoyl]-2-methylphenyl]-1,3-thiazole-5-carboxamide]: the IC50 in test [1] is less than 100 nM; in test [2], more than 1000 nM; in test [3], more than 1000 nM; in test [4], more than 1000 nM.

For `Cc1cc(F)c(C(=O)Nc2nc3c(s2)COCC3)cc1NC(=O)c1cnc(N)s1` [Example 145, 2-Amino-N-[5-(6,7-dihydro-4H-pyrano[4,3-d][1,3]thiazol-2-ylcarbamoyl)-4-fluoro-2-methylphenyl]-1,3-thiazole-5-carboxamide], the IC50 was less than 100 nM in test [1], more than 1000 nM in test [2], 100 to 1000 nM in test [3] and 100 to 1000 nM in test [4].

Consider `Cc1cc(F)c(C(=O)Nc2ncc(C(C)C)s2)cc1NC(=O)c1cnc(N)s1` [Example 146, 2-Amino-N-[4-fluoro-2-methyl-5-[(5-propan-2-yl-1,3-thiazol-2-yl)carbamoyl]phenyl]-1,3-thiazole-5-carboxamide], for which the IC50 in test [1], in test [2], in test [3] and in test [4] was less than 100 nM each time.

For `Cc1cc(F)c(C(=O)Nc2ccn(CC3CC3)n2)cc1NC(=O)c1cnc(N)s1` [Example 151, 2-Amino-N-[5-[[1-(cyclopropylmethyl)pyrazol-3-yl]carbamoyl]-4-fluoro-2-methylphenyl]-1,3-thiazole-5-carboxamide], the IC50 was less than 100 nM in test [1], 100 to 1000 nM in test [2], less than 100 nM in test [3] and 100 to 1000 nM in test [4].

With `Cc1cc(F)c(C(=O)Nc2ccn(CC(C)(C)O)n2)cc1NC(=O)c1cnc(N)s1` [Example 153, 2-Amino-N-[4-fluoro-5-[[1-(2-hydroxy-2-methylpropyl)pyrazol-3-yl]carbamoyl]-2-methylphenyl]-1,3-thiazole-5-carboxamide], the IC50 in test [1] was less than 100 nM; in test [2] it was more than 1000 nM; in test [3], more than 1000 nM; in test [4] it was more than 1000 nM.

Consider `Cc1nnc(NC(=O)c2cc(NC(=O)c3cnc(N)s3)c(C)cc2F)s1` [Example 162, 2-Amino-N-[4-fluoro-2-methyl-5-[(5-methyl-1,3,4-thiadiazol-2-yl)carbamoyl]phenyl]-1,3-thiazole-5-carboxamide], for which the 50% inhibitory concentration (IC50) was less than 100 nM in test [1], more than 1000 nM in test [2], more than 1000 nM in test [3] and 100 to 1000 nM in test [4].

Take `Cc1cc(F)c(C(=O)NCCCN2CCOCC2)cc1NC(=O)c1cnc(N)s1` [Example 164, 2-Amino-N-[4-fluoro-2-methyl-5-(3-morpholin-4-ylpropylcarbamoyl)phenyl]-1,3-thiazole-5-carboxamide]: the IC50 in test [1] was less than 100 nM; in test [2] it was more than 1000 nM; in test [3], more than 1000 nM; in test [4] it was more than 1000 nM.

On to `Cc1cc(F)c(C(=O)NCCc2ccc(F)cc2)cc1NC(=O)c1cnc(N)s1` [Example 165], for which the IC50 in test [1] is less than 100 nM; in test [2], 100 to 1000 nM; in test [3], less than 100 nM; in test [4], 100 to 1000 nM.

Turning to `Cc1cc(F)c(C(=O)Nc2ccc(OC3CC3)cn2)cc1NC(=O)c1cncs1` [Example 169, N-[5-[(5-Cyclopropyloxypyridin-2-yl)carbamoyl]-4-fluoro-2-methylphenyl]-1,3-thiazole-5-carboxamide], the 50% inhibitory concentration (IC50) in test [1] is less than 100 nM; in test [2] it was more than 1000 nM; in test [3] it was more than 1000 nM; in test [4] it was more than 1000 nM.

With `Cc1cc(F)c(C(=O)Nc2nc(C3CC3)cs2)cc1NC(=O)c1cnc(N)s1` [Example 170, 2-Amino-N-[5-[(4-cyclopropyl-1,3-thiazol-2-yl)carbamoyl]-4-fluoro-2-methylphenyl]-1,3-thiazole-5-carboxamide], the half-inhibitory concentration (IC50) in test [1] is less than 100 nM; in test [2], more than 1000 nM; in test [3] it was 100 to 1000 nM; in test [4] it was 100 to 1000 nM.

With `Cc1cc(F)c(C(=O)Nc2nc(C)n(C)n2)cc1NC(=O)c1cnc(N)s1` [Example 173, 2-Amino-N-[5-[(1,5-dimethyl-1,2,4-triazol-3-yl)carbamoyl]-4-fluoro-2-methylphenyl]-1,3-thiazole-5-carboxamide], the IC50 is 100 to 1000 nM in test [1], more than 1000 nM in test [2], more than 1000 nM in test [3] and more than 1000 nM in test [4].

Take `Cc1cc(F)c(C(=O)Nc2ncn(C)n2)cc1NC(=O)c1cnc(N)s1` [Example 174, 2-Amino-N-[4-fluoro-2-methyl-5-[(1-methyl-1,2,4-triazol-3-yl)carbamoyl]phenyl]-1,3-thiazole-5-carboxamide]: the half-maximal inhibitory concentration (IC50) in test [1] is 100 to 1000 nM; in test [2], more than 1000 nM; in test [3], more than 1000 nM; in test [4], more than 1000 nM.

Consider `Cc1cc(F)c(C(=O)Nc2nnc(C3CC3)s2)cc1NC(=O)c1cnc(N)s1` [Example 175, 2-Amino-N-[5-[(5-cyclopropyl-1,3,4-thiadiazol-2-yl)carbamoyl]-4-fluoro-2-methylphenyl]-1,3-thiazole-5-carboxamide], for which the concentration for half-maximal inhibition (IC50) in test [1] was less than 100 nM; in test [2], 100 to 1000 nM; in test [3], less than 100 nM; in test [4], less than 100 nM.

Consider `Cc1cc(F)c(C(=O)Nc2nnc(C3CC3)[nH]2)cc1NC(=O)c1cnc(N)s1` [Example 176, 2-Amino-N-[5-[(5-cyclopropyl-4H-1,2,4-triazol-3-yl)carbamoyl]-4-fluoro-2-methylphenyl]-1,3-thiazole-5-carboxamide], for which the IC50 is 100 to 1000 nM in test [1], more than 1000 nM in test [2], more than 1000 nM in test [3] and more than 1000 nM in test [4].

In the case of `Cc1cc(F)c(C(=O)Nc2cc(C3CC3)[nH]n2)cc1NC(=O)c1cnc(N)s1` [Example 177, 2-Amino-N-[5-[(5-cyclopropyl-1H-pyrazol-3-yl)carbamoyl]-4-fluoro-2-methylphenyl]-1,3-thiazole-5-carboxamide], the half-maximal inhibitory concentration (IC50) in test [1] is less than 100 nM; in test [2], 100 to 1000 nM; in test [3] it was 100 to 1000 nM; in test [4], 100 to 1000 nM.
